From patent US12655116B2, “Substituted isophthalic acid diamides” (Bayer Aktiengesellschaft, priority 2020, dated 2026)

Columns and labels:
SETVI [1] = experiment: Post-emergence herbicidal action against SETVI; format: in vivo, Setaria viridis; details: dosage 20 g/ha
Summary of the method: (§1)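 Sandy loam, greenhouse; treatment 2–3 weeks after sowing, one-leaf stage. Aqueous suspension or emulsion from WP/EC sprayed on foliage (600–800 l/ha, 0.2% wetting agent). Readout: visual % action, ~3 weeks.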

MATIN [2] = experiment: Pre-emergence herbicidal action against MATIN; format: in vivo, Matricaria inodora
Summary of the method: (§2)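 Seeds sown in sandy loam, soil-covered; compound sprayed on soil surface pre-emergence. Application: WP/EC, 600–800 l/ha, 0.2% wetting agent. Readout: visual % damage at 3 weeks.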

ABUTH [3] = experiment: Pre-emergence herbicidal action against ABUTH; format: in vivo, Abutilon theophrasti; details: for Pre-emergence action against ABUTH (herbicidal activity): 80 g/ha, scored visually after 3 weeks vs untreated controls (100% = plants have died, 0% = like control plants); for Pre-emergence action against ABUTH (herbicidal activity in percent): dosage 20 g/ha, scored visually after 3 weeks vs untreated controls, 100% = plants have died, 0% = like control plants
Summary of the method: as §2

POLCO = experiment: Pre-emergence herbicidal action against POLCO; format: in vivo, Polygonum convolvulus; details: dosage 80 g/ha
Summary of the method: as §2

STEME [4] = experiment: Post-emergence herbicidal action against STEME; format: in vivo, Stellaria media
Protocol: Seeds of monocotyledonous and dicotyledonous weed and crop plants are laid out in sandy loam soil in wood-fiber pots, covered with soil and cultivated in a greenhouse under good growth conditions. 2 to 3 weeks after sowing, the test plants are treated at the one-leaf stage. The compounds of the invention, formulated in the form of wettable powders (WP) or as emulsion concentrates (EC), are then sprayed onto the green parts of the plants in the form of an aqueous suspension or emulsion at a water application rate equivalent to 600 to 800 l/ha, with addition of 0.2% wetting agent. After the test plants have been left to stand in the greenhouse under optimal growth conditions for about 3 weeks, the action of the preparations is assessed visually in comparison to untreated controls (herbicidal action in percent (%): 100% activity=the plants have died, 0% activity=like control plants). […] The tables below illustrate, in an illustrative manner, the post-emergence herbicidal action of the compounds of the invention, the herbicidal activity being stated in percent.

ECHCG [5] = experiment: Pre-emergence herbicidal action against ECHCG; format: in vivo, Echinochloa crus-galli; details: 80 g/ha
Summary of the method: as §2

ABUTH [6] = experiment: Post-emergence herbicidal action against ABUTH; format: in vivo, Abutilon theophrasti; details: visual assessment about 3 weeks after treatment vs untreated controls
Summary of the method: as §1

AMARE [7] = experiment: Post-emergence herbicidal action against AMARE; format: in vivo, Amaranthus retroflexus; details: 20 g/ha, visual assessment about 3 weeks after treatment, 100% = plants have died, 0% = like control plants
Summary of the method: as §1

DIGSA [8] = experiment: Post-emergence herbicidal action against DIGSA; format: in vivo, Digitaria sanguinalis; details: for Post-emergence action against DIGSA in %: 5 g/ha; for Post-emergence action against DIGSA: 20 g/ha
Summary of the method: as §1

AMARE [9] = experiment: Pre-emergence herbicidal action against AMARE; format: in vivo, Amaranthus retroflexus
Summary of the method: as §2

DIGSA [10] = experiment: Pre-emergence herbicidal action against DIGSA; format: in vivo, Digitaria sanguinalis
Summary of the method: as §2

STEME [11] = experiment: Pre-emergence herbicidal action against STEME; format: in vivo, Stellaria media
Summary of the method: as §2

VIOTR [12] = experiment: Pre-emergence herbicidal action against VIOTR; format: in vivo, Viola tricolor
Summary of the method: as §2

AVEFA = experiment: Pre-emergence herbicidal action against AVEFA; format: in vivo, Avena fatua; details: 80 g/ha, pre-emergence
Summary of the method: as §2

SETVI [13] = experiment: Pre-emergence herbicidal action against SETVI; format: in vivo, Setaria viridis; details: dosage 80 g/ha
Summary of the method: as §2

ALOMY [14] = experiment: Post-emergence herbicidal action against ALOMY; format: in vivo, Alopecurus myosuroides; details: dosage 20 g/ha, visual assessment about 3 weeks after treatment vs untreated controls
Summary of the method: as §1

VIOTR [15] = experiment: Post-emergence herbicidal action against VIOTR; format: in vivo, Viola tricolor; details: 20 g/ha
Summary of the method: as §1

MATIN [16] = experiment: Post-emergence herbicidal action against MATIN; format: in vivo, Matricaria inodora; details: dosage 20 g/ha
Summary of the method: as §1

ECHCG [17] = experiment: Post-emergence herbicidal action against ECHCG; format: in vivo, Echinochloa crus-galli
Summary of the method: as §1

ALOMY [18] = experiment: Pre-emergence herbicidal action against ALOMY; format: in vivo, Alopecurus myosuroides; details: 80 g/ha, pre-emergence, scored visually after 3 weeks vs untreated controls (100% = plants have died, 0% = like control plants)
Summary of the method: as §2

[19] = 20 g/ha, scored visually after 3 weeks vs untreated controls, 100% = plants have died, 0% = like control plants
[20] = 80 g/ha, scored visually after 3 weeks vs untreated controls (100% = plants have died, 0% = like control plants)

| SMILES | Post-emergence action against SETVI in % (SETVI [1]) | Pre-emergence action against MATIN in % (MATIN [2]; dosage 80 g/ha) | Pre-emergence action against ABUTH (herbicidal activity) (ABUTH [3]) | Pre-emergence action against POLCO in % (POLCO) | Post-emergence action against STEME in % (STEME [4]; 20 g/ha) | Pre-emergence action against ECHCG in % (ECHCG [5]) | Post-emergence action against ABUTH in % (ABUTH [6]; dosage 5 g/ha) | Post-emergence action against ABUTH in % (ABUTH [6]; dosage 20 g/ha) | Post-emergence action at 20 g/ha against AMARE in % (AMARE [7]) | Post-emergence action against DIGSA in % (DIGSA [8]) | Post-emergence action against DIGSA (DIGSA [8]) | Pre-emergence action against AMARE in % (AMARE [9]; [19]) | Pre-emergence action against AMARE in % (AMARE [9]; [20]) | Pre-emergence action against DIGSA in % (DIGSA [10]; dosage 20 g/ha) | Pre-emergence action against DIGSA in % (DIGSA [10]; dosage 80 g/ha) | Pre-emergence action against STEME in % (STEME [11]; dosage 80 g/ha) | Pre-emergence action against MATIN in % (MATIN [2]; dosage 20 g/ha) | Pre-emergence action against ABUTH (herbicidal activity in percent) (ABUTH [3]) | Pre-emergence action against SETVI in % (SETVI [13]) | Post-emergence action against ALOMY in % (ALOMY [14]) | other results |
| --- | --- | --- | --- | --- | --- | --- | --- | --- | --- | --- | --- | --- | --- | --- | --- | --- | --- | --- | --- | --- | --- |
| CCNC(=O)c1c(C(F)F)ccc(C(=O)Nc2nnc(C)o2)c1C [Example 6-32] | 80% | 90% | 80% | 80% | 80% | 90% | 80% | 80% | 100% | 80% | 80% | 80% | 100% | 90% | 100% | 90% |  |  |  |  |  |
| Cc1nnc(NC(=O)c2ccc(C(F)(F)F)c(C(=O)NC3CC3)c2Cl)o1 [Example 6-118] |  | 100% | 100% | 80% | 100% | 100% | 80% | 90% | 100% | 100% | 100% | 80% | 100% | 90% | 100% | 100% | 90% | 100% | 100% | 80% | Pre-emergence action against VIOTR in % (VIOTR [12]; dosage 20 g/ha): 90%; Pre-emergence action against VIOTR in % (VIOTR [12]; dosage 80 g/ha): 90%; Pre-emergence action against AVEFA in % (AVEFA): 90%; Post-emergence action against VIOTR in % (VIOTR [15]): 80%; Post-emergence action against MATIN in % (MATIN [16]): 80%; Pre-emergence action against STEME in % (STEME [11]; dosage 20 g/ha): 90%; Post-emergence action against ECHCG in % (ECHCG [17]; dosage 20 g/ha): 90%; Pre-emergence action against ALOMY (herbicidal activity) (ALOMY [18]): 100% |
| CCc1c(C(=O)Nc2nnc(C)o2)ccc(C(F)(F)F)c1C(=O)NC1CC1 [Example 6-212] | 80% | 90% | 90% |  | 90% | 90% | 80% | 90% | 90% | 80% | 90% | 90% | 90% | 100% | 100% | 90% | 80% | 80% | 90% | 80% | Post-emergence action against STEME in % (STEME [4]; dosage 5 g/ha): 80%; Pre-emergence action against STEME in % (STEME [11]; dosage 20 g/ha): 80%; Post-emergence action against ECHCG in % (ECHCG [17]; dosage 5 g/ha): 90%; Post-emergence action against ECHCG in % (ECHCG [17]; dosage 20 g/ha): 90%; Pre-emergence action against ALOMY (herbicidal activity) (ALOMY [18]): 80% |
